Measurements taken from article PMC8748766, “The catalytic activity of TCPTP is auto-regulated by its intrinsically disordered tail and activated by Integrin alpha-1” (Nature Communications, 2022).

Biological target: T1, TCPTPCAT (Homo sapiens, UniProt P17706)
T1 construct: TCPTP and TCPTPCAT (residue 1–314) against 2 phosphotyrosine peptides derived from EGFR; His6 (N, cleaved yes); made in house; host or cells: E. coli BL21 (DE3) RIL
T1 sequence (P17706 1-314 isoform P17706-2): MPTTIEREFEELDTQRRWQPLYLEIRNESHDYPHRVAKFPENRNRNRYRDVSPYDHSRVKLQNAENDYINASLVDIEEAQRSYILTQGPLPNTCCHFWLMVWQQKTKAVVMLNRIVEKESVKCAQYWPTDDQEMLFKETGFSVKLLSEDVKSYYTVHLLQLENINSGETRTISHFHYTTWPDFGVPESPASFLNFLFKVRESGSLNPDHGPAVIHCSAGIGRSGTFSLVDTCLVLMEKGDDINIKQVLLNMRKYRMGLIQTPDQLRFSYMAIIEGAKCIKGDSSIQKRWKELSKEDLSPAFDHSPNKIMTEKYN
Experiment: NMR titration (2D HSQC/TROSY) binding to TCPTPCAT
Conditions: 2D [1H,15N] TROSY, unlabeled ligand added
From the text: Polymerase chain reaction (PCR) fragments of TCPTP (residues: 1–387) TCPTPCAT (catalytic domain, residues: 1–288, 1–302 or 1–314), TCPTPTail (C-terminal tail, residues: 289–387 or 303–387) were amplified from full-length human TCPTP (TC45 isoform). TCPTP, TCPTPCAT (residues: 1–288, 1–314), and TCPTPTail (residues: 289–387) fragments were cloned into pMCSG7 including a N-terminal His6-tag using ligation-independent cloning. For all NMR experiments, the PCR fragments of TCPTP, TCPTPCAT (residues: 1–302) and TCPTPTail (residue: 303–387) were sub-cloned into pRP1B as previously described.
NMR data were collected on either Bruker NEO 600 MHz or 800 MHz spectrometers equipped with TCI HCN z-gradient cryoprobes at 298 K or 283 K. NMR measurements of TCPTP’s variant construct were recorded using (^1H,^15N)-, (^2H,^15N)-, (^1H,^15N,^13C), or (^2H,^15N,^13C)-labeled protein at a final concentration of 0.6 mM for backbone assignment or 0.1 mM for titration in NMR buffer and 90% H2O/10% D2O. The sequence-specific backbone assignments of TCPTP (residues 1–387), TCPTPCAT (residues 1–302), TCPTPTail (residues 303–387) and other variants were achieved using 3D triple resonance experiments including […], 3D HNCA, 3D HN(CO)CA, 3D HN(CO)CACB, and 3D HNCACB either as HSQC or TROSY variations. All NMR data were processed using TopSpin 4.0.5[44] and analyzed using either CARA (http://www.cara.nmr.ch) and/or CcpNMR[45].

RPLKKKMEKRPLKKKMEK [ITGA1_TR, ITGA1 tandem repeat (2x ITGA1_TCT): …]
NMR titration: CSPs in (2H,15N)-labeled TCPTPCAT: significant CSPs in the same residues
